pIC50: −log10 of the molar value.
Assays:
[1] = biological target: His-BIR3 (241-356, XIAP) (Homo sapiens (Human), UniProt P98170); assay: XIAP-BIR3/SMAC Homogeneous Time Resolved Fluorescence (HTRF) Assay; assay type: binding; conditions: fluorescein labeled SMAC peptide
Method: B. XIAP-BIR3/SMAC Homogeneous Time Resolved Fluorescence (HTRF) Assay
(§1) Assays were performed in black, flat-bottom, 384-well plates.

[2] = biological target: His-BIR2-3 (125-356, C202A/C213G, XIAP) (Homo sapiens (Human), UniProt P98170, C202A/C213G); assay: XIAP-BIR2-3 Dimeric SMAC Peptide Homogeneous Time Resolved Fluorescence (HTRF) Assay; assay type: binding; conditions: fluorescein labeled dimeric SMAC peptide
Method: D. XIAP-BIR2-3 Dimeric SMAC Peptide Homogeneous Time Resolved Fluorescence (HTRF) Assay
as §1

| Compound | pIC50 [1] | pIC50 [2] |
| --- | --- | --- |
| CN[C@@H](C)C(=O)N[C@H](C(=O)N1C[C@@H](NC(=O)c2ccc(C(=O)Nc3ccc4c(c3)CN(C(=O)[C@@H](NC(=O)[C@H](C)NC)C(C)(C)SCC(=O)N(C)C)[C@H](C(=O)N[C@@H]3CCCc5ccccc53)C4)cc2)C[C@H]1C(=O)N[C@@H]1CCCc2ccccc21)C(C)(C)C [Example 64, N^1-((3S,5S)-1-((S)-3,3-Dimethyl-2-((S)-2-(methylamino)propanamido)butanoyl)-5-(((R)-1,2,3,4-tetrahydronaphthalen-1-yl)carbamoyl)pyrrolidin-3-yl)-N^4-((S)-2-((R)-3-((2-(dimethylamino)-2-oxoethyl)thio)-3-methyl-2-((S)-2-(methylamino)propanamido)butanoyl)-3-(((R)-1,2,3,4-tetrahydronaphthalen-1-yl)carbamoyl)-1,2,3,4-tetrahydroisoquinolin-7-yl)terephthalamide] | 7.85 | 8.00 |
| CN[C@@H](C)C(=O)N[C@H](C(=O)N1C[C@@H](NC(=O)c2ccc(C(=O)Nc3ccc4c(c3)CN(C(=O)[C@@H](NC(=O)[C@H](C)NC)C(C)(C)SCC(=O)NCCO)[C@H](C(=O)N[C@@H]3CCCc5ccccc53)C4)cc2)C[C@H]1C(=O)N[C@@H]1CCCc2ccccc21)C(C)(C)C [Example 63, N^1-((3S,5S)-1-((S)-3,3-Dimethyl-2-((S)-2-(methylamino)propanamido)butanoyl)-5-(((R)-1,2,3,4-tetrahydronaphthalen-1-yl)carbamoyl)pyrrolidin-3-yl)-N^4-((S)-2-((R)-3-((2-((2-hydroxyethyl)amino)-2-oxoethyl)thio)-3-methyl-2-((S)-2-(methylamino)propanamido)butanoyl)-3-(((R)-1,2,3,4-tetrahydronaphthalen-1-yl)carbamoyl)-1,2,3,4-tetrahydroisoquinolin-7-yl)terephthalamide] | 7.77 | 8.30 |
| CN[C@@H](C)C(=O)N[C@H](C(=O)N1Cc2cc(C(=O)Nc3ncc(C(=O)N[C@H]4C[C@@H](C(=O)N[C@@H]5CCCc6ccccc65)N(C(=O)[C@@H](NC(=O)[C@H](C)NC)C(C)(C)C)C4)s3)ccc2C[C@H]1C(=O)N[C@@H]1CCCc2ccccc21)C(C)(C)C [Example 21, (S)-2-((S)-3,3-Dimethyl-2-((S)-2-(methylamino)propanamido)butanoyl)-N^7-(5-(((3S,5S)-1-((S)-3,3-dimethyl-2-((S)-2-(methylamino)propanamido)butanoyl)-5-(((R)-1,2,3,4-tetrahydronaphthalen-1-yl)carbamoyl)pyrrolidin-3-yl)carbamoyl)thiazol-2-yl)-N^3-((R)-1,2,3,4-tetrahydronaphthalen-1-yl)-1,2,3,4-tetrahydroisoquinoline-3,7-dicarboxamide] | 7.77 | 8.22 |
| CN[C@@H](C)C(=O)N[C@H](C(=O)N1C[C@@H](NC(=O)c2ccc(C(=O)Nc3ccc4c(c3)CN(C(=O)[C@@H](NC(=O)[C@H](C)NC)C(C)(C)SCCO)[C@H](C(=O)N[C@@H]3CCCc5ccccc53)C4)cc2)C[C@H]1C(=O)N[C@@H]1CCCc2ccccc21)C(C)(C)C [Example 67, N^1-((3S,5S)-1-((S)-3,3-Dimethyl-2-((S)-2-(methylamino)propanamido)butanoyl)-5-(((R)-1,2,3,4-tetrahydronaphthalen-1-yl)carbamoyl)pyrrolidin-3-yl)-N^4-((S)-2-((R)-3-((2-hydroxyethyl)thio)-3-methyl-2-((S)-2-(methylamino)propanamido)butanoyl)-3-(((R)-1,2,3,4-tetrahydronaphthalen-1-yl)carbamoyl)-1,2,3,4-tetrahydroisoquinolin-7-yl)terephthalamide] | 7.85 | 8.22 |
| CN[C@@H](C)C(=O)N[C@H](C(=O)N1C[C@@H](NC(=O)c2ccc(C(=O)Nc3ccc4c(c3)CN(C(=O)[C@@H](NC(=O)[C@H](C)NC)C(C)(C)SCC(=O)O)[C@H](C(=O)N[C@@H]3CCCc5ccccc53)C4)cc2)C[C@H]1C(=O)N[C@@H]1CCCc2ccccc21)C(C)(C)C [Example 57, 2-(((R)-4-((S)-7-(4-(((3S,5S)-1-((S)-3,3-Dimethyl-2-((S)-2-(methylamino)propanamido)butanoyl)-5-(((R)-1,2,3,4-tetrahydronaphthalen-1-yl)carbamoyl)pyrrolidin-3-yl)carbamoyl)benzamido)-3-(((R)-1,2,3,4-tetrahydronaphthalen-1-yl)carbamoyl)-3,4-dihydroisoquinolin-2(1H)-yl)-2-methyl-3-((S)-2-(methylamino)propanamido)-4-oxobutan-2-yl)thio)acetic acid] | 8.00 | 8.22 |
| CN[C@@H](C)C(=O)N[C@H](C(=O)N1C[C@@H](NC(=O)c2ccc(C(=O)Nc3ccc4c(c3)CN(C(=O)[C@@H](NC(=O)[C@H](C)NC)C(C)(C)SCc3ncc(C(C)(C)C)o3)[C@H](C(=O)N[C@@H]3CCCc5ccccc53)C4)cc2)C[C@H]1C(=O)N[C@@H]1CCCc2ccccc21)C(C)(C)C [Example 68, N^1-((S)-2-((R)-3-(((5-(tert-Butyl)oxazol-2-yl)methyl)thio)-3-methyl-2-((S)-2-(methylamino)propanamido)butanoyl)-3-(((R)-1,2,3,4-tetrahydronaphthalen-1-yl)carbamoyl)-1,2,3,4-tetrahydroisoquinolin-7-yl)-N^4-((3S,5S)-1-((S)-3,3-dimethyl-2-((S)-2-(methylamino)propanamido)butanoyl)-5-(((R)-1,2,3,4-tetrahydronaphthalen-1-yl)carbamoyl)pyrrolidin-3-yl)terephthalamide] | 6.59 | 6.80 |
| CN[C@@H](C)C(=O)N[C@H](C(=O)N1Cc2cc(NC(=O)c3ccc4c(ccn4C(=O)N[C@H]4C[C@@H](C(=O)N[C@@H]5CCCc6ccccc65)N(C(=O)[C@@H](NC(=O)[C@H](C)NC)C(C)(C)C)C4)c3)ccc2C[C@H]1C(=O)N[C@@H]1CCCc2ccccc21)C(C)(C)C [Example 49, N^5—((S)-2-((S)-3,3-Dimethyl-2-((S)-2-(methylamino)propanamido)butanoyl)-3-(((R)-1,2,3,4-tetrahydronaphthalen-1-yl)carbamoyl)-1,2,3,4-tetrahydroisoquinolin-7-yl)-N^1-((3S,5S)-1-((S)-3,3-dimethyl-2-((S)-2-(methylamino)propanamido)butanoyl)-5-(((R)-1,2,3,4-tetrahydronaphthalen-1-yl)carbamoyl)pyrrolidin-3-yl)-1H-indole-1,5-dicarboxamide] | 7.29 | 7.66 |
| CN[C@@H](C)C(=O)N[C@H](C(=O)N1Cc2cc(NC(=O)c3cccc4c3ccn4C(=O)N[C@H]3C[C@@H](C(=O)N[C@@H]4CCCc5ccccc54)N(C(=O)[C@@H](NC(=O)[C@H](C)NC)C(C)(C)C)C3)ccc2C[C@H]1C(=O)N[C@@H]1CCCc2ccccc21)C(C)(C)C [Example 54, N^4-((S)-2-((S)-3,3-Dimethyl-2-((S)-2-(methylamino)propanamido)butanoyl)-3-(((R)-1,2,3,4-tetrahydronaphthalen-1-yl)carbamoyl)-1,2,3,4-tetrahydroisoquinolin-7-yl)-N^1-((3S,5S)-1-((S)-3,3-dimethyl-2-((S)-2-(methylamino)propanamido)butanoyl)-5-(((R)-1,2,3,4-tetrahydronaphthalen-1-yl)carbamoyl)pyrrolidin-3-yl)-1H-indole-1,4-dicarboxamide] | 7.12 | 7.68 |
| CN[C@@H](C)C(=O)N[C@H](C(=O)N1Cc2cc(NC(=O)c3ccc(C(=O)N[C@H]4C[C@@H](C(=O)N[C@@H]5CCCc6ccccc65)N(C(=O)[C@@H](NC(=O)[C@H](C)NC)C(C)(C)C)C4)cc3)ccc2C[C@H]1C(=O)N[C@@H](COC)c1ccccc1)C(C)(C)C [Example 13, N^1-((S)-2-((S)-3,3-Dimethyl-2-((S)-2-(methylamino)propanamido)butanoyl)-3-(((R)-2-methoxy-1-phenylethyl)carbamoyl)-1,2,3,4-tetrahydroisoquinolin-7-yl)-N^4-((3S,5S)-1-((S)-3,3-dimethyl-2-((S)-2-(methylamino)propanamido)butanoyl)-5-(((R)-1,2,3,4-tetrahydronaphthalen-1-yl)carbamoyl)pyrrolidin-3-yl)terephthalamide] | 7.92 | 7.96 |
| CCN[C@@H](C)C(=O)N[C@H](C(=O)N1Cc2cc(OCc3ccc(C(=O)NC4C[C@@H](C(=O)NC5CCCc6ccccc65)N(C(=O)[C@@H](NC(=O)[C@H](C)NC)C(C)(C)C)C4)cc3)ccc2C[C@H]1C(=O)NC1CCCc2ccccc21)C(C)(C)C (stereo partly shown) [Example 39] | 7.05 | 7.19 |
| CN[C@@H](C)C(=O)N[C@H](C(=O)N1C[C@@H](NC(=O)c2ccc(C(=O)Nc3ccc4c(c3)CN(C(=O)[C@@H](NC(=O)[C@H](C)NC)C(C)(C)SC)[C@H](C(=O)N[C@@H]3CCCc5ccccc53)C4)cc2)C[C@H]1C(=O)N[C@@H]1CCCc2ccccc21)C(C)(C)C [Example 55, N^1-((3S,5S)-1-((S)-3,3-Dimethyl-2-((S)-2-(methylamino)propanamido)butanoyl)-5-(((R)-1,2,3,4-tetrahydronaphthalen-1-yl)carbamoyl)pyrrolidin-3-yl)-N^4—((S)-2-((R)-3-methyl-2-((S)-2-(methylamino)propanamido)-3-(methylthio)butanoyl)-3-(((R)-1,2,3,4-tetrahydronaphthalen-1-yl)carbamoyl)-1,2,3,4-tetrahydroisoquinolin-7-yl)terephthalamide] | 8.05 | 8.40 |

From US9783573B2, “IAP antagonists” (BRISTOL-MYERS SQUIBB COMPANY, priority 2012, dated 2017)
